Measured values taken from patent US20240368163A1, “COMPOUNDS AND METHODS FOR MODULATING SPLICING” (REMIX THERAPEUTICS INC., priority 2021, published 2024).
Like-named read-outs stand apart in the source and are kept apart here.

Columns and labels:
Assay type in all cases: cell-based, human
SMN2 = assay: Splicing RT-qPCR panel, SMN2 canonical junction (CJ) mRNA; conditions: Homo sapiens, read-out: SMN2 IC50 (decrease in CJ mRNA levels)
How it was run: (§1)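 Cells: A673 (DMEM/10% FBS) or K562 (IMDM/10% FBS). Dose: 11-pt 3-fold, top 10 uM final, ≤0.25% DMSO, 24 h, 37 °C. Readout: RT-qPCR of CJ/AJ exon junctions, ΔΔCt vs housekeeper and DMSO, RQ to % response.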

MYB [1] = assay: Splicing RT-qPCR assay, MYB mRNA canonical junction (CJ) and alternative junction (AJ); conditions: Homo sapiens; for AC50: increase in AJ mRNA
How it was run: as §1

MYB [2] = assay: HiBiT protein abundance assay, MYB; conditions: Homo sapiens, K562, 24 h, modified K562 cells
How it was run: (§2)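 HiBiT-tagged endogenous targets in K562 cells treated 24 h at 37° C. with 10-point 3-fold dilutions (top 10 μM, DMSO ≤0.25%). Luminescence read after lytic LgBiT detection; response normalised to unmodified-cell and DMSO controls, IC50 interpolated at 50% from four-parameter logistic fit.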

Target C [3] = assay: Splicing RT-qPCR panel, Target C canonical junction (CJ) mRNA; conditions: Homo sapiens, read-out: Target C IC50 (decrease in CJ mRNA levels)
How it was run: as §1

Target C [4] = assay: HiBiT protein abundance assay, Target C; conditions: Homo sapiens, K562, 24 h, modified K562 cells
How it was run: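 HiBiT knock-in K562-derived cells seeded at 10000/well and treated with 10-point 3-fold dilutions (top final 10 μM, ≤0.25% DMSO) for 24 h at 37 °C. Lytic HiBiT luminescence normalised to unmodified-cell and DMSO controls; IC50 from 4-parameter fit at 50% abundance.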

HTT [5] = assay: Splicing RT-qPCR assay, HTT mRNA canonical junction (CJ) and alternative junction (AJ); conditions: Homo sapiens; for AC50: increase in AJ mRNA
How it was run: as §1

HTT [6] = assay: HiBiT protein abundance assay, HTT; conditions: Homo sapiens, K562, 24 h, modified K562 cells
How it was run: as §2

[7] = RT-qPCR panel, canonical junction mRNA, compound concentration having 50% response in CJ decrease
[8] = 24 h, decrease in CJ mRNA, A673 or K562 cells, 24 hours treatment, RT-qPCR, read-out: MYB CJ IC50
[9] = 24 h, A673 or K562 cells, 24 hours treatment, RT-qPCR
[10] = RT-qPCR panel, canonical junction mRNA, compound concentration having 50% response in CJ decrease, read-out: MYB IC50 (decrease in CJ mRNA levels)
[11] = 24 h, decrease in CJ mRNA, A673 or K562 cells, 24 hours treatment, RT-qPCR, read-out: HTT CJ IC50
[12] = RT-qPCR panel, canonical junction mRNA, compound concentration having 50% response in CJ decrease, read-out: HTT IC50 (decrease in CJ mRNA levels)
[13] = gene panel, CJ qPCR, protocol of Example 142
[14] = gene panel, CJ qPCR, protocol of Example 142, read-out: MYB IC50 (decrease in CJ mRNA levels)
[15] = gene panel, CJ qPCR, protocol of Example 142, read-out: HTT IC50 (decrease in CJ mRNA levels)

Row | IC50 (MYB [1]; [8]) [nM] | IC50 (HTT [5]; [11]) [nM] | SMILES | IC50 (SMN2; [7]) [nM] | AC50 (MYB [1]; [9]) [nM] | IC50 (MYB [1]; [10]) [nM] | IC50 (MYB [2]; Table 13A) [nM] | IC50 (Target C [3]; [7]) [nM] | IC50 (Target C [4]; Table 13A) [nM] | AC50 (HTT [5]; [9]) [nM] | IC50 (HTT [5]; [12]) [nM] | IC50 (HTT [6]; Table 13A) [nM] | IC50 (SMN2; [13]) [nM] | IC50 (MYB [1]; [14]) [nM] | IC50 (MYB [2]; Table 13B) [nM] | IC50 (Target C [3]; [13]) [nM] | IC50 (Target C [4]; Table 13B) [nM] | IC50 (HTT [5]; [15]) [nM] | IC50 (HTT [6]; Table 13B) [nM]
1 | – | – | CN(c1ccc(-c2ccc(-c3cn[nH]c3)c(Cl)n2)nn1)[C@@H]1C[C@H]2CC[C@@H](C1)N2 [Compound 923] | – | – | – | – | – | – | – | – | – | < 100 | 100 to 1000 | 100 to 1000 | 100 to 1000 | < 100 | < 100 | < 100
2 | 1000 to 10000 | 1000 to 10000 | Cn1cc(-c2ccc(-c3ccc(OC4CC(C)(C)NC(C)(C)C4)nn3)c3[nH]ncc23)cn1 [Compound 232] | 100 to 1000 | 100 to 1000 | 1000 to 10000 | 1000 to 10000 | 1000 to 10000 | 1000 to 10000 | 100 to 1000 | 1000 to 10000 | 100 to 1000 | – | – | – | – | – | – | –
3 | 1000 to 10000 | 1000 to 10000 | c1nc2c(-c3cn[nH]c3)ccc(-c3ccc(C4CCNCC4)nn3)c2s1 [Compound 206] | < 100 | 100 to 1000 | 1000 to 10000 | 1000 to 10000 | > 10000 | > 10000 | > 10000 | 1000 to 10000 | 1000 to 10000 | – | – | – | – | – | – | –
4 | – | – | COc1nc(-c2ccc(N(C)C3CC(C)(C)NC(C)(C)C3)nc2)ccc1-c1cn[nH]c1 [Compound 993] | – | – | – | – | – | – | – | – | – | < 100 | 100 to 1000 | 100 to 1000 | 100 to 1000 | 100 to 1000 | < 100 | < 100
5 | – | – | COc1nc(-c2ccc(OC3CC(C)(C)NC(C)(C)C3)nn2)ccc1-c1cn(C)nn1 [Compound 946] | – | – | – | – | – | – | – | – | – | 100 to 1000 | 1000 to 10000 | 1000 to 10000 | > 10000 | > 10000 | 1000 to 10000 | 1000 to 10000
6 | – | – | COc1nc(-c2ncc(N(C)[C@@H]3C[C@H]4CC[C@@H](C3)N4)cn2)ccc1-c1cn[nH]c1 [Compound 997] | – | – | – | – | – | – | – | – | – | > 10000 | > 10000 | > 10000 | > 10000 | > 10000 | > 10000 | > 10000
7 | – | – | CN(c1ncc(-c2ccc(-n3cccn3)c3[nH]ncc23)nn1)[C@@H]1C[C@H]2CCC[C@@H](C1)N2C [Compound 575] | 1000 to 10000 | – | > 10000 | 1000 to 10000 | 1000 to 10000 | 1000 to 10000 | – | 100 to 1000 | 100 to 1000 | – | – | – | – | – | – | –
8 | – | – | COc1nc(-c2ccc(NC3CCNCC3)nc2)ccc1-n1cccn1 [Compound 987] | – | – | – | – | – | – | – | – | – | 1000 to 10000 | > 10000 | 1000 to 10000 | > 10000 | 1000 to 10000 | > 10000 | > 10000

Row | SMILES | IC50 (MYB [1]; [8]) [nM] | IC50 (HTT [5]; [11]) [nM] | IC50 (SMN2; [7]) [nM] | AC50 (MYB [1]; [9]) [nM] | IC50 (MYB [1]; [10]) [nM] | IC50 (MYB [2]; Table 13A) [nM] | IC50 (Target C [3]; [7]) [nM] | IC50 (Target C [4]; Table 13A) [nM] | AC50 (HTT [5]; [9]) [nM] | IC50 (HTT [5]; [12]) [nM] | IC50 (HTT [6]; Table 13A) [nM] | IC50 (SMN2; [13]) [nM] | IC50 (MYB [1]; [14]) [nM] | IC50 (MYB [2]; Table 13B) [nM] | IC50 (Target C [3]; [13]) [nM] | IC50 (Target C [4]; Table 13B) [nM] | IC50 (HTT [5]; [15]) [nM] | IC50 (HTT [6]; Table 13B) [nM]
9 | Cc1cc(-c2ccc(-c3ccc(O[C@H]4C[C@@H]5CC(F)(F)[C@H](C4)N5)nn3)c3[nH]ncc23)ccn1 (single isomer, unassigned) [Compound 370] | > 10000 | > 10000 | 1000 to 10000 | > 10000 | > 10000 | 1000 to 10000 | 1000 to 10000 | > 10000 | > 10000 | > 10000 | 1000 to 10000 | – | – | – | – | – | – | –
